Entries after “also recorded” stand apart in the source; their conditions may differ. Peptide text beside a SMILES is read from it.
Experiments:
[1] = test system: A549 human lung carcinoma cells; assay: phosphonucleolin cytoblot, suppressors of G2-arresting agents; type: cell-based; details: for prevention of nocodazole mitotic arrest: simultaneous addition with 250 nM nocodazole, 14 μM ICRF-193, 20 μM roscovitine
Experimental: (§1) FIG. 11. Cytoblots can be used to screen for small molecule suppressors of anti-proliferative agents using the presence of phosphonucleolin, and for small molecules that induce exit from mitosis using the absence of phosphonucleolin. […] A549 human lung carcinoma cells were seeded at a density of 4000 cells in 40 μL of DMEM+ in each well of an opaque 384-well plate and incubated for 24 hours at 37° C. with 5% CO2. […] Cells were then incubated for 18 hours at 37° C. with 5% CO2 and a phosphonucleolin cytoblot was performed. (c) HeLaS3 cells were seeded at a density of 4000 cells in 40 μL of DMEM+ in each well of an opaque 384-well plate and incubated for 24 hours at 37° C. with 5% CO2. Cells were either left untreated or treated with 554 nM nocodazole for 14 hours to arrest cells in mitosis. Roscovitine was then added to the final concentrations indicated in a final volume of 50 μL and cells were incubated for 4 hours at 37° C. with 5% CO2. Finally, BrdU was added to a final concentration of 10 μM to those wells that were assayed for BrdU incorporation, and the cells incubated for an additional 6 hours at 37° C. with 5% CO2. BrdU and phosphonucleolin cytoblots were performed. […] HeLa cells were seeded at a density of 4000 cells per well in 40 μL of DMEM+ in each well of an opaque 384 well plate and incubated overnight at 37° C. with 5% CO2. Cells were then treated with either an equivalent amount of DMSO or nocodazole to a final concentration of 415 nM and the cells incubated for an additional 14 hours at 37° C. with 5% CO2. Roscovitine was then added to the final concentrations indicated and final volume of 50 μL and cells incubated for 4 hours 37° C. with 5% CO2. Finally, BrdU was added to a final concentration of 10 μM to those wells the be assayed for BrdU incorporation and the cells incubated for an additional 6 hours at 37° C. with 5% CO2. BrdU and TG-3 cytoblots were performed (see Protocols). Wells are shown magnified 4×. […] A549 human lung carcinoma cells were seeded at a density of 4000 cells in 40 uL of DMEM+ in each well of an opaque 384 well plate and incubated for 24 hours at 37° C. with 5% CO2. […] Cells were then incubated for 18 hours at 37° C. with 5% CO2 and a TG-3 cytoblot performed (see Protocol).
These purine analogs are known to be non-specific competitive inhibitors of 5′-adenosine triphosphate binding and therefore are likely to inhibit a wide range of kinases in the cell.

HeLaS3 cells = assay: BrdU and phosphonucleolin cytoblots in nocodazole-arrested HeLa cells; type: cell-based, human
Experimental: as §1
It should also be possible to find small molecules that induce exit from mitosis, resulting in a reduction in phosphonucleolin levels. As the nocodazole-induced arrest of cells in mitosis requires cyclin-dependent kinase (CDK) activity for the activation of the spindle assembly checkpoint, inhibition of CDK activity should suppress nocodazole-induced mitotic arrest (FIG. 11a). […]

[2] = test system: Mv1Lu mink lung epithelial cells; assay: 384 well anti-BrdU cytoblot; type: cell-based; details: 384-well plate; antiproliferative agents 24 hours, then 10 μM BrdU 16 hours (FIG. 2)
From the text: FIG. 1. An immunodetection assay for DNA synthesis in high density arrays of mammalian cells. (a) Cartoon depiction of an anti-BrdU cytoblot. The thymine analog 5-bromodeoxyuridine (BrdU) is incorporated into the DNA of cells that are actively replicating their DNA. The cells are in the well, and BrdU is detected with a two step antibody binding procedure. The second antibody is conjugated to the enzyme horseradish peroxidase. In the presence of the chemiluminescent substrate luminol as well as hydrogen peroxide, light of wavelength 428 nm is generated. The light emission can be detected by exposing the plate to film. (b) A cytoblot can detect TGF-β's ability to prevent BrdU incorporation in mink lung epithelial cells. 2000 Mv1Lu mink lung epithelial cells were seeded in each well of a white, opaque 384 well plate. The cells were seeded in the indicated concentrations of TGF-β in 50 μL of DMEM with 1% fetal bovine serum (FBS), 100 units/mL penicillin G sodium, 100 μg/mL streptomycin sulfate and 100 μM each of the amino acids alanine, aspartic acid, glutamine, glycine, asparagine and proline (referred to throughout as 1% mink medium) and allowed to incubate at 37° C. with 5% CO2. After 16 hours, 5.5 μL of 100 μM BrdU in 1% mink medium was added to each well, for a final concentration of 10 μM BrdU. The cells were incubated at 37° C. with 5% CO2 for an additional 16 hours and then an anti-BrdU cytoblot protocol was performed (see protocol). Wells shown are magnified 4×.
FIG. 2. A cytoblot can detect the ability of numerous antiproliferative agents to inhibit BrdU incorporation. 2000 Mv1Lu mink lung epithelial cells were seeded in each well of a white, opaque 384 well plate. The cells were seeded in 40 μL of 1% mink media and immediately 40 μL of 2× stocks of the reagents shown was added to each well and the cells were allowed to incubate at 37° C. with 5% CO2. After 24 hours, 9 μL of 100 μM BrdU in 1% mink medium was added to each well, for a final concentration of 10 μM BrdU. The cells were incubated at 37° C. with 5% CO2 for an additional 16 hours and then an anti-BrdU cytoblot protocol was performed (see protocol). Wells shown are magnified 2.5×.
The ability of the cytoblot assay to detect changes in DNA synthesis was tested by measuring the incorporation of 5-bromodeoxyuridine (BrdU, Sigma Corporation, St. Louis, Mo., Cat.# B9285) into DNA in the presence or absence of the anti-mitogen transforming growth factor β (TGF-β). Mink lung cells, which are responsive to TGF-β, were seeded into each well of an opaque, white 384-well plate. The cells were subsequently treated with varying concentrations of TGF-β for 16 hours and then with 10 μM BrdU for 16 hours. […] The following protocols provide experimental detail. […]

[3] = test system: hyperacetylated histone H4; assay: 384 well anti-acetylated histone H4 cytoblot; type: cell-based, human; details: A549 cells; 300 nM trichostatin A, 100 nM trapoxin, 24 hours
Experimental: FIG. 5. An immunodetection assay for the accumulation of hyperacetylated histone H4 in high density arrays of mammalian cells. A549 human lung carcinoma cells were seeded at a density of 4000 cells in 40 μL of DMEM+ in each well of an opaque 384 well plate and incubated overnight at 37° C. with 5% CO2. Cells were either untreated, washed once and treated with 0.5% serum, 80 pM TGF-β, 300 nM trichostatin A, 100 nM trapoxin or 250 nM nocodazole and incubated for 24 hours at 37° C. with 5% CO2 in a final volume of 50 μL. A cytoblot was performed (see Protocol) and the presence of the hyperacetylated form of histone H4 was detected using a two step antibody binding procedure using an anti-acetylated H4 antibody and a secondary antibody conjugated to the enzyme horseradish peroxidase. Wells are shown magnified 25×.
Any post-translational modification that can be recognized by an antibody (or ligand) may be used in a cytoblot screen. […] In addition, antibodies against the phosphorylated form of nucleolin (FIG. 6a) or histone H3 (FIG. 6b) were used to detect the presence of phosphonucleolin or phosphohistone H3 respectively, both of which server as biochemical markers of the mitotic state of cells (Anderson et al. Experimental Cell Research 238: 498-502 1998; Vincent et al. J. Cell. Biol. 132:413-425. 1996)). The following protocol provides experimental detail. […]

[4] = test system: mink lung epithelial cells; assay: BrdU cytoblot assay for S-phase progression; type: cell-based
From the text: BRDU CYTOBLOT ASSAY: The BrdU cytoblot assay for S-phase progression was described previously by Stockwell et al. (Chem. Biol. 6:71, 1999; see also, U.S. Patent Application Ser. No. 60/094,305, incorporated herein by reference).
Compounds that mimic TGFβ activity would be expected to be capable of inducing cell cycle arrest or apoptosis, and in particular to block DNA replication, in responding cells. We therefore used an S-phase progression cytoblot assay to test whether our compounds could inhibit 5-bromodeoxyuridine (BrdU) incorporation into mink epithelial cells. […] Both compounds were therefore classified as true TGFβ mimics.

In the case of `Nc1ncc2[nH]cnc2n1` [2-aminopurine], the “suppression of ICRF-193-induced G2 arrest” value ([1]; 1 mM 2-aminopurine or 2 mM caffeine with ICRF-193 and 250 nM nocodazole, 18 hours) was “prevented the arrest in response to ICRF-193; also recorded: suppress a DNA damage-independent topoisomerase inhibitor-induced G2-checkpoint arrest”.
For `COC(=O)Nc1nc2ccc(C(=O)c3cccs3)cc2[nH]1` [nocodazole], the “mitotic arrest (phosphonucleolin)” value ([1]; 250 nM nocodazole, 18 hours) was “arrested in mitosis”, the accumulation of phosphonucleolin (HeLaS3 cells; HeLa cells, nocodazole 415 nM) was “induces the accumulation of phosphonucleolin” and the “incorporation of BrdU” value (HeLaS3 cells; HeLa cells, nocodazole 415 nM) was “prevents the incorporation of BrdU”. The BrdU incorporation [2] was “effectively prevent BrdU incorporation”.
In the case of `CC[C@H](CO)Nc1nc(NCc2ccccc2)c2ncn(C(C)C)c2n1` [roscovitine], the “prevention of nocodazole mitotic arrest” value [1] was “prevented this mitotic arrest”, the “exit from nocodazole-induced arrest (disappearance of phosphonucleolin)” value (HeLaS3 cells; nocodazole 14 hours, then roscovitine) was “cells exited from the nocodazole-induced arrest; also recorded: suppresses only the accumulation of phosphonucleolin” and the “BrdU incorporation after roscovitine” value (HeLaS3 cells; nocodazole 14 hours, then roscovitine, 10 μM BrdU 6 hours) was “did not begin to incorporate BrdU”.
With `O=C(CCCCC[C@@H]1NC(=O)[C@H]2CCCCN2C(=O)[C@H](Cc2ccccc2)NC(=O)[C@H](Cc2ccccc2)NC1=O)C1CO1` (stereo partly shown) [trapoxin, trapoxin A] (HELM PEPTIDE1{F.F.[O=C([C@H]1CCCCN1[*:1])[*:2]].[O=C(CCCCC[C@H](N[*:1])C(=O)[*:2])C1CO1]}$PEPTIDE1,PEPTIDE1,1:R1-4:R2$$$V2.0) the “acetylation of histone H4” value [3] was “increase in the acetylation of histone H4” and the BrdU incorporation [2] was “effectively prevent BrdU incorporation”.
`CC(/C=C/C(=O)NO)=C\[C@@H](C)C(=O)c1ccc(N(C)C)cc1` [trichostatin, trichostatin A] was tested, and the “acetylation of histone H4” value [3] was “increase in the acetylation of histone H4”.
With CuCl2 [Cu^2+] the BrdU incorporation [4] was “inhibition of BrdU incorporation”.
For ICRF-193, the “prevention of nocodazole mitotic arrest” value [1] was “prevented this mitotic arrest”.
